Positions of bridges follow the written chain, without caps; N, C: chain ends. Non-standard residues stand in square brackets, D forms with d. Residues, ends and D or L forms follow the SMILES beside them. Abu = CC[C@H](N)C(=O)O
Molecular target: Complement C3 (Homo sapiens, UniProt P01024)
Test: Inhibitory concentration for human complement component C3 activation

Sequence of Complement C3 (P01024 23-667 limits assumed): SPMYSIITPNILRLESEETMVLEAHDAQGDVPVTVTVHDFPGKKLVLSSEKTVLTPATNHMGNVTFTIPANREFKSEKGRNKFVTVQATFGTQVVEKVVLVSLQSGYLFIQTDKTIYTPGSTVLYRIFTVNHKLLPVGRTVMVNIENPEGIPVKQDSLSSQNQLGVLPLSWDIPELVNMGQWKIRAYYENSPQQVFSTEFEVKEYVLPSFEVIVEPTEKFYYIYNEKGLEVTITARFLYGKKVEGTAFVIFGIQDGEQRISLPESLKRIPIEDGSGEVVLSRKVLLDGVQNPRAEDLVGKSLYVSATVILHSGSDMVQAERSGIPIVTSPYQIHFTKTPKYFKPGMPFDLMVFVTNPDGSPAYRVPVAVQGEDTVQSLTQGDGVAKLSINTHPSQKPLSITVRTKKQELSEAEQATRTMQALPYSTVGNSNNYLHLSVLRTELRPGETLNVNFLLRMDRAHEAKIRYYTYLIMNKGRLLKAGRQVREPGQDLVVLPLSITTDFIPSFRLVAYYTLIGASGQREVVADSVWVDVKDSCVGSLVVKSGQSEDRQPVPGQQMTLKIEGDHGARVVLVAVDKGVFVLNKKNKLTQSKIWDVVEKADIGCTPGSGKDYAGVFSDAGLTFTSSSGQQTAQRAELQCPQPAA
Sequence of Complement C3 (P01024 672-1663 limits assumed): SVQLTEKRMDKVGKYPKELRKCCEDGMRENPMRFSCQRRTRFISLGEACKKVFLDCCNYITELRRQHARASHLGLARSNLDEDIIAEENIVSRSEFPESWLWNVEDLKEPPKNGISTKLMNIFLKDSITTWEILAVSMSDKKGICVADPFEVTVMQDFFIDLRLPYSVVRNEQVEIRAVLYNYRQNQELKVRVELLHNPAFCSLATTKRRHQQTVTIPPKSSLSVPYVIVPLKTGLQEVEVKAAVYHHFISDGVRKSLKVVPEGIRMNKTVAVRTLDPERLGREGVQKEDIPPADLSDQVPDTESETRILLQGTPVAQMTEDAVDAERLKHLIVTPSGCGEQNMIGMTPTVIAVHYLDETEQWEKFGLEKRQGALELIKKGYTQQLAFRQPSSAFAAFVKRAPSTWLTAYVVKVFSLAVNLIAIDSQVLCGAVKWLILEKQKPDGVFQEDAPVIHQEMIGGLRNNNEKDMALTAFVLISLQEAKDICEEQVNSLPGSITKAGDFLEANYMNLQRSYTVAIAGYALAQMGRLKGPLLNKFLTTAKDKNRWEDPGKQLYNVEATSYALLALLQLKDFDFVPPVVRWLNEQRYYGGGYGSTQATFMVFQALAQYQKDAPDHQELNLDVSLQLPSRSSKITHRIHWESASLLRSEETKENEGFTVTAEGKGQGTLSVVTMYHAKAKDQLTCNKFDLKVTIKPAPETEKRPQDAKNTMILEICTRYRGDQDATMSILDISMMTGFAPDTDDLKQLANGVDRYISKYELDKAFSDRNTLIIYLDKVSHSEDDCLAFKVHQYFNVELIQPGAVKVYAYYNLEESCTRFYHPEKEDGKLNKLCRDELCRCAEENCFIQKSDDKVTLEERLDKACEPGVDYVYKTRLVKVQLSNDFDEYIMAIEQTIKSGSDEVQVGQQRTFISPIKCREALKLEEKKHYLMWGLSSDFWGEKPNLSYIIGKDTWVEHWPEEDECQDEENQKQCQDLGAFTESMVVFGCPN

IC50 [µM]	Compound
> 1000	CC[C@H](C)[C@H](NC(C)=O)C(=O)N[C@H]1CSSC[C@@H](C(N)=O)NC(=O)[C@H](CCCN=C(N)N)NC(=O)[C@H](Cc2c[nH]cn2)NC(=O)[C@H](Cc2c[nH]cn2)NC(=O)CNC(=O)[C@@H](Cc2c[nH]c3ccccc23)NC(=O)[C@H](CC(=O)O)NC(=O)[C@H](CCC(N)=O)NC(=O)[C@H](C(C)C)NC(=O)[C@H](C(C)C)NC1=O
> 1000	CC[C@H](C)[C@H](NC(C)=O)C(=O)N[C@H]1CSSC[C@@H](C(N)=O)NC(=O)[C@H](CCCNC(=N)N)NC(=O)[C@H](Cc2cnc[nH]2)NC(=O)[C@H](Cc2cnc[nH]2)NC(=O)CNC(=O)[C@H](Cc2c[nH]c3ccccc23)NC(=O)[C@@H](CC(=O)O)NC(=O)[C@H](CCC(N)=O)NC(=O)[C@H](C(C)C)NC(=O)[C@H](C(C)C)NC1=O
1.5	CC[C@@H]1NC(=O)CNC(=O)[C@H](Cc2c[nH]c3ccccc23)NC(=O)[C@H](CC(=O)O)NC(=O)[C@H](CCC(N)=O)NC(=O)[C@H](Cc2c[nH]c3ccccc23)NC(=O)[C@H](C(C)C)NC(=O)[C@@H](NC(=O)[C@@H](NC(C)=O)[C@@H](C)CC)CSSC[C@@H](C(=O)N[C@H](C(N)=O)[C@@H](C)O)NC(=O)[C@H](CCCN=C(N)N)NC(=O)[C@H](Cc2c[nH]cn2)NC1=O (Ac-ICVWQDWG[Abu]HRCT-NH2; disulfide 2-12)

From ChEMBL document CHEMBL1139489, “Design and NMR characterization of active analogues of compstatin containing non-natural amino acids” (J Med Chem, 2005)
